Assay results published in patent US11840524B2, “4-substituted phenyl-1,3,5-triazine derivatives as modulators of TrK receptors” (ALZECURE PHARMA AB, priority 2018, dated 2023).

Tests used:
TrkB = target: T1, TrkB (Homo sapiens, UniProt Q16620); experiment: Cell-based Enzyme Fragment Complementation (EFC) assay, U2OS cells over-expressing TrkB; settings: compound pre-mixed with ligand, final ligand concentration 10 ng/mL, 3 hours at room temperature, read-out: TrkB potency expressed as EC50
T1 construct: expressed in transfected cells; host or cells: U2OS
T1 sequence (Q16620 32-822): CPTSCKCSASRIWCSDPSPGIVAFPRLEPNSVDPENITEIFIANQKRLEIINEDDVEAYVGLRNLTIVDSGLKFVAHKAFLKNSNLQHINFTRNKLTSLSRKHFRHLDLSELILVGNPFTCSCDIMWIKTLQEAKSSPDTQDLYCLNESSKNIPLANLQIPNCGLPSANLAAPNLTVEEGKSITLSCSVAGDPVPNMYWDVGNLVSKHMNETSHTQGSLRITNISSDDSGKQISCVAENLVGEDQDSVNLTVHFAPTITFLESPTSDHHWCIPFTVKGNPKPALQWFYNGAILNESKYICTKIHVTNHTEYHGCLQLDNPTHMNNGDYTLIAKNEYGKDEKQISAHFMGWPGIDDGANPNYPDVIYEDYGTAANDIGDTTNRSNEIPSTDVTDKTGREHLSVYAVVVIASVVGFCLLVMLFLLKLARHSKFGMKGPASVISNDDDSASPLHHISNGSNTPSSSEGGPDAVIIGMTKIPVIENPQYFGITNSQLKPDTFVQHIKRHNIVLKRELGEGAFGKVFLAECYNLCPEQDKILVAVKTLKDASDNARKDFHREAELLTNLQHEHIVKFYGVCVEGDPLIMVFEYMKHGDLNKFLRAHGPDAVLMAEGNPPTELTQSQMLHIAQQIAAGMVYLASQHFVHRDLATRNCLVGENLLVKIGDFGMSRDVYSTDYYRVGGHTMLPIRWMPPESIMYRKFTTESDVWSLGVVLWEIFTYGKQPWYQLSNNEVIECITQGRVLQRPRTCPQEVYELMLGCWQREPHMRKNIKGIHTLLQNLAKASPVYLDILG
Description: (§1) A high throughput cell-based screen has been used to identify positive modulators of TrkA, TrkB and TrkC. The screen involves the use of cell-based assay overexpressing TrkA, TrkB or TrkC. The purpose of the assay is to identify compounds that modulate neurotrophin signalling (Forsell et al 2012). The assay can be used in inhibitor mode using a high concentration of ligand, in modulator mode using an intermediate concentration and in agonist mode using a low concentration of ligand.
(§2) The assay uses Enzyme Fragment Complementation (EFC) technique, which is a proximity-based assay. Briefly, cells used in this assay over-express two fusion proteins, i.e. the receptor, which can be one of TrkA, TrkB or TrkC fused to a small peptide of beta-galactosidase and an adaptor protein, i.e. SHC1 (or any other Trk-adaptor protein) fused to the major part of beta-galactosidase. […] The proximity between the small activating peptide on the receptor and the major part of beta-galactosidase on the adaptor protein leads to an active beta-galactosidase enzyme. The activation of the receptor is quantified by measuring the amount of active beta-galactosidase by its conversion of a non-luminescent substrate into a luminescent product.
(§3) U2OS-cells, over-expressing TrkA or TrkB or TrkC, were plated in 96- or 384-well plates and incubated overnight. On the following day, test compound was pre-mixed with ligand (NGF) and the ligand-compound mixture is then added to the cells to yield a final ligand concentration of 10 ng/mL. After 3 hours of incubation at room temperature, the incubation is stopped by the addition of a beta-galactosidase substrate mixture containing detergents. The substrate mixture is incubated for 60 minutes at ambient temperature. The luminescence is thereafter read by the use of a plate reader.

TrkA = target: T2, TrkA (Homo sapiens, UniProt P04629); experiment: Cell-based Enzyme Fragment Complementation (EFC) assay, U2OS cells over-expressing TrkA; settings: compound pre-mixed with ligand (NGF), final ligand concentration 10 ng/mL, 3 hours at room temperature, read-out: TrkA potency expressed as EC50
T2 construct: expressed in transfected cells; host or cells: U2OS
T2 sequence (P04629 33-796): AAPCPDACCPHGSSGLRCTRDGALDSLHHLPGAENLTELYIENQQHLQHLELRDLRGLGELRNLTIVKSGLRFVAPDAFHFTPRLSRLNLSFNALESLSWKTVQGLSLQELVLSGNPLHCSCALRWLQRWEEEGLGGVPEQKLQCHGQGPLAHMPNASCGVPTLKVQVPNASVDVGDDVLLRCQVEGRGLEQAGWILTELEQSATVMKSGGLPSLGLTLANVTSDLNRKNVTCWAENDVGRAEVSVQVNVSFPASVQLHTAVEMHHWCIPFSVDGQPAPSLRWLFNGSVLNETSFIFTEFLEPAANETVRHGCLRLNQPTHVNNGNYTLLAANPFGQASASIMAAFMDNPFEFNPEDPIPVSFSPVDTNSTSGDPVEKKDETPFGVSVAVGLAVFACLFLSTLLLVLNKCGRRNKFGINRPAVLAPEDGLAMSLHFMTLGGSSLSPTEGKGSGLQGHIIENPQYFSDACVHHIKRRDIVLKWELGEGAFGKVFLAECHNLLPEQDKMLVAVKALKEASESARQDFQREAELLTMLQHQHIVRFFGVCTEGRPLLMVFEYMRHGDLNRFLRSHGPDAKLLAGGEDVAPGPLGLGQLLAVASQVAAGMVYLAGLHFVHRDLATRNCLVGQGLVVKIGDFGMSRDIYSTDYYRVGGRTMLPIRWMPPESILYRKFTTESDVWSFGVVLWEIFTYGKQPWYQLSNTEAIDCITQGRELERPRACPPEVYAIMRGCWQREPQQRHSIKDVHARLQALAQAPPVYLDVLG
Description: as §1, §2, §3

TrkC = target: T3, TrkC (Homo sapiens, UniProt Q16288); experiment: Cell-based Enzyme Fragment Complementation (EFC) assay, U2OS cells over-expressing TrkC; settings: compound pre-mixed with ligand, final ligand concentration 10 ng/mL, 3 hours at room temperature, read-out: TrkC potency expressed as EC50
T3 construct: expressed in transfected cells; host or cells: U2OS
T3 sequence (Q16288 32-839): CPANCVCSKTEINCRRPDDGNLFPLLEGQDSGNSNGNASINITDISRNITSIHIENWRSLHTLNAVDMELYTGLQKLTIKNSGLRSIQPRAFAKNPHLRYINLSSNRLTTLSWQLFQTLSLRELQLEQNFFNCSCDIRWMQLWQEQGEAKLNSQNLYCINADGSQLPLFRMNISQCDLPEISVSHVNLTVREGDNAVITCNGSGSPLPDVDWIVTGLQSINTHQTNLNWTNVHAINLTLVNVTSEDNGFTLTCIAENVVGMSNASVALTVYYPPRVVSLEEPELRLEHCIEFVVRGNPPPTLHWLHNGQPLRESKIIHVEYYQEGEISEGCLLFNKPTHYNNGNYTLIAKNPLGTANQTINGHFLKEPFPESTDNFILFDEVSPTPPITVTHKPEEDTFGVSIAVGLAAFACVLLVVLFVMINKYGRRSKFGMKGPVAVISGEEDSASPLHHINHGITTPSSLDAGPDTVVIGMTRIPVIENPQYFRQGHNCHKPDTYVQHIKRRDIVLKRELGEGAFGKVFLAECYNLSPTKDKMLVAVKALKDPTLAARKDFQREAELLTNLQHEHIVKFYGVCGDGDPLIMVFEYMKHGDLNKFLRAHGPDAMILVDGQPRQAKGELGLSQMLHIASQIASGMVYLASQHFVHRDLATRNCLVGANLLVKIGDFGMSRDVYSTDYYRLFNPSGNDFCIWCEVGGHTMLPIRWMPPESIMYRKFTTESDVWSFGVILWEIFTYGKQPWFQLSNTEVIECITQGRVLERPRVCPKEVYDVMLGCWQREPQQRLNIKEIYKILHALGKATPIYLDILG
Description: as §1, §2
U2OS-cells, over-expressing TrkA or TrkB or TrkC, were plated in 96- or 384-well plates and incubated overnight. […] The luminescence is thereafter read by the use of a plate reader.

[1] = tested on: ephrin type-B receptor 2 (EphB2); settings: Suzuki et al., FEBS Open Bio 2016; cited from earlier work

Compound	EC50 (TrkB) [nM]	EC50 (TrkA) [nM]	EC50 (TrkC) [nM]	inhibition of the binding of β-amyloid oligomers to EphB2 [1] [%]
O=c1[nH]c(=O)n(-c2ccc(Oc3ccccc3)c(Cn3cncn3)c2)c(=O)n1-c1ccccc1 [Example 3, 1-{4-phenoxy-3-[(1H-1,2,4-triazol-1-yl)methyl]phenyl}-3-phenyl-1,3,5-triazinane-2,4,6-trione]	810	520	–	–
Cc1cccc(-n2c(=O)[nH]c(=O)n(-c3ccc(Oc4ccccc4)c(OCc4cnc[nH]4)c3)c2=O)c1 [Example 10, 1-{3-[(1H-imidazol-5-yl)methoxy]-4-phenoxyphenyl}-3-(3-methylphenyl)-1,3,5-triazinane-2,4,6-trione]	12000	1670	–	–
COc1ccc(-n2c(=O)[nH]c(=O)n(-c3ccc(Oc4ccccc4)c(Cn4ccnc4)c3)c2=O)cc1 [Example 7, 1-{3-[(1H-imidazol-1-yl)methyl]-4-phenoxyphenyl}-3-(4-methoxyphenyl)-1,3,5-triazinane-2,4,6-trione]	450	720	–	–
Cc1cc(-n2c(=O)[nH]c(=O)n(C)c2=O)ccc1Oc1ccc(SC(F)(F)F)cc1 [toltrazuril, 1-methyl-3-(3-methyl-4-{4-[(trifluoromethyl)sulfanyl]phenoxy}phenyl)-1,3,5-triazinane-2,4,6-trione]	–	–	–	30
Cc1cccc(-n2c(=O)[nH]c(=O)n(-c3ccc(Oc4ccccc4)c(Cn4cnc(F)c4)c3)c2=O)c1 [Example 12, 1-{3-[(4-fluoro-1H-imidazol-1-yl)methyl]-4-phenoxyphenyl}-3-(3-methylphenyl)-1,3,5-triazinane-2,4,6-trione]	60	100	–	–
Cc1cccc(-n2c(=O)[nH]c(=O)n(-c3ccc(Oc4ccccc4)c(Cn4cc(F)cn4)c3)c2=O)c1 [Example 15, 1-{3-[(4-fluoro-1H-pyrazol-1-yl)methyl]-4-phenoxyphenyl}-3-(3-methylphenyl)-1,3,5-triazinane-2,4,6-trione]	90	120	–	–
Cn1c(=O)[nH]c(=O)n(-c2ccc(-c3ccccc3)c(Cn3cccn3)c2)c1=O [Example 5, 1-methyl-3-{2-[(1H-pyrazol-1-yl)methyl]-[1,1′-biphenyl]-4-yl}-1,3,5-triazinane-2,4,6-trione]	31000	1320	–	–
Cc1cccc(-n2c(=O)[nH]c(=O)n(-c3ccc(Oc4ccccc4)c(OCc4ncc[nH]4)c3)c2=O)c1 [Example 9, 1-{3-[(1H-imidazol-2-yl)methoxy]-4-phenoxyphenyl}-3-(3-methylphenyl)-1,3,5-triazinane-2,4,6-trione]	120	250	–	–

Continued by falling EC50 (TrkB), values first:

EC50 (TrkB) [nM]	EC50 (TrkA) [nM]	EC50 (TrkC) [nM]	Compound	inhibition of the binding of β-amyloid oligomers to EphB2 [1] [%]
2070	1100	–	CCc1ccc(Oc2ccc(-n3c(=O)[nH]c(=O)n(C)c3=O)cc2Cn2cccn2)cc1 [Example 4, 1-[4-(4-ethylphenoxy)-3-[(1H-pyrazol-1-yl)methyl]phenyl]-3-methyl-1,3,5-triazinane-2,4,6-trione]	–
470	650	–	Cc1cccc(-n2c(=O)[nH]c(=O)n(-c3ccc(Oc4ccccc4)c(-n4cnc(C)c4)c3)c2=O)c1 [Example 13, 1-[3-(4-methyl-1H-imidazol-1-yl)-4-phenoxyphenyl]-3-(3-methylphenyl)-1,3,5-triazinane-2,4,6-trione]	–
270	380	200	O=c1[nH]c(=O)n(-c2ccc(Oc3ccccc3)c(Cn3ccnc3)c2)c(=O)n1-c1ccccc1 [Example 2, 1-{3-[(1H-imidazol-1-yl)methyl]-4-phenoxyphenyl}-3-phenyl-1,3,5-triazinane-2,4,6-trione]	–
200	160	–	Cc1cccc(-n2c(=O)[nH]c(=O)n(-c3ccc(Oc4ccccc4)c(Cn4ccnc4)c3)c2=O)c1 [Example 6, 1-{3-[(1H-imidazol-1-yl)methyl]-4-phenoxyphenyl}-3-(3-methylphenyl)-1,3,5-triazinane-2,4,6-trione]	–
200	160	120	O=c1[nH]c(=O)n(-c2ccc(Oc3ccccc3)c(Cn3cccn3)c2)c(=O)n1-c1ccccc1 [Example 1, 1-{4-phenoxy-3-[(1H-pyrazol-1-yl)methyl]phenyl}-3-phenyl-1,3,5-triazinane-2,4,6-trione]	–
180	180	–	O=c1[nH]c(=O)n(-c2ccc(Oc3ccccc3)c(Cn3cc(F)cn3)c2)c(=O)n1-c1ccccc1 [Example 14, 1-{3-[(4-fluoro-1H-pyrazol-1-yl)methyl]-4-phenoxyphenyl}-3-phenyl-1,3,5-triazinane-2,4,6-trione]	–
170	180	–	CCn1cc(Cc2cc(-n3c(=O)[nH]c(=O)n(-c4ccccc4)c3=O)ccc2Oc2ccccc2)cn1 [Example 16, 1-{3-[(1-ethyl-1H-pyrazol-4-yl)methyl]-4-phenoxyphenyl}-3-phenyl-1,3,5-triazinane-2,4,6-trione]	–
170	190	–	Cc1cccc(-n2c(=O)[nH]c(=O)n(-c3ccc(Oc4ccc(F)cc4)c(Cn4ccnc4)c3)c2=O)c1 [Example 8, 1-[4-(4-fluorophenoxy)-3-[(1H-imidazol-1-yl)methyl]phenyl]-3-(3-methylphenyl)-1,3,5-triazinane-2,4,6-trione]	–
140	220	–	1-{3-[(4-methyl-1H-imidazol-1-yl)methyl]-4-phenoxyphenyl}-3-(3-methylphenyl)-1,3,5-triazinane-2,4,6-trione+1-{3-[(5-methyl-1H-imidazol-1-yl)methyl]-4-phenoxyphenyl}-3-(3-methylphenyl)-1,3,5-triazinane-2,4,6-trione [Example 11]	–
